One data set concerns Escherichia coli. Briefly: Antimicrobial activity against Escherichia coli ATCC 25922 assessed as inhibition of visible microbial growth incubated for 18 hrs by broth microdilution method. The data set is classed as functional. In general terms: In broth dilution the organism is exposed to a series of concentrations in liquid medium.
Data set [1] deals with Pseudomonas aeruginosa. Briefly: Drug resistance, ratio of MIC for multidrug resistant Pseudomonas aeruginosa after 16 passages to MIC for multidrug resistant Pseudomonas aeruginosa after first exposure. In kind it is functional.
The subject of a further data set is Staphylococcus aureus. Briefly: Drug resistance, ratio of MIC for Staphylococcus aureus ATCC 29213 after 16 passages exposure to MIC for Staphylococcus aureus ATCC 29213 after first exposure. The data set is classed as functional.
The subject of data set [2] is Pseudomonas aeruginosa. Briefly: Antimicrobial activity against multidrug resistant Pseudomonas aeruginosa at 1.9 to 500 microg/ml in presence of phosphatidylglycerol acid by checkerboard microdilution assay. The conditions noted are these: dose 1.9-500 µg/ml. In kind it is functional, organism-based.
Data set [3] relates to Pseudomonas aeruginosa. Briefly: Antimicrobial activity against multidrug resistant Pseudomonas aeruginosa at 1.9 to 500 microg/ml in presence of lipopolysaccharide by checkerboard microdilution assay. In kind it is functional, organism-based. The following applies: dose 1.9-500 µg/ml.
A short description of data set [4]: Toxicity in female C57BL/6 mouse assessed as effect on body weight at 5 to 20 mg/kg, ip administered daily and measured for 5 days. The data set is classed as organism-based. The following applies: in vivo, 120 h, dose 5-20 mg/kg, time 5 day.
The nature of data set [5]: Nephrotoxicity in female C57BL/6 mouse assessed as change in BUN level at 20 mg/kg, ip administered daily and measured for 5 days. The data set is classed as toxicity, organism-based. The following applies: in vivo, 120 h, time 5 day.
The nature of data set [6]: Hepatotoxicity in female C57BL/6 mouse assessed as change in AST level at 20 mg/kg, ip administered daily and measured for 5 days. In kind it is toxicity, organism-based. The conditions noted are these: in vivo, 120 h, time 5 day.
Data set [7] in a line: Toxicity in female C57BL/6 mouse assessed as histopathological change in lung at 20 mg/kg, ip administered daily and measured for 5 days by H and E staining based analysis. The data set is classed as organism-based. The following applies: in vivo, 120 h, time 5 day.
Data set [8] deals with Pseudomonas aeruginosa. Briefly: In vivo antibacterial activity against multidrug resistant Pseudomonas aeruginosa infected in acute peritonitis C57BL/6 mouse model assessed as decrease in IL-1beta level in serum at 5 to 20 mg/kg, ip measured after 12 hrs by ELISA. In kind it is functional, organism-based. The following applies: dose 5-20 mg/kg.
Data set [9] relates to Pseudomonas aeruginosa. Briefly: In vivo antibacterial activity against multidrug resistant Pseudomonas aeruginosa infected in acute peritonitis C57BL/6 mouse model assessed as decrease in IL-6 level in serum at 5 to 20 mg/kg, ip measured after 12 hrs by ELISA. The data set is classed as functional, organism-based. The conditions noted are these: dose 5-20 mg/kg. A general note: In an ELISA, binding on a coated surface is turned into a signal by an enzyme label.

Data set [10] concerns Pseudomonas aeruginosa. Briefly: In vivo antibacterial activity against multidrug resistant Pseudomonas aeruginosa infected in acute peritonitis C57BL/6 mouse model assessed as reduction in bacterial load in kidney at 10 to 20 mg/kg, ip measured after 12 hrs. The conditions noted are these: dose 10-20 mg/kg. In kind it is functional, organism-based.
The subject of data set [11] is Pseudomonas aeruginosa. Briefly: In vivo antibacterial activity against multidrug resistant Pseudomonas aeruginosa infected in acute peritonitis C57BL/6 mouse model assessed as reduction in pulmonary edema at 5 to 20 mg/kg, ip measured after 12 hrs by H and E staining based analysis. The data set is classed as functional, organism-based. The conditions noted are these: dose 5-20 mg/kg.

The test system of data set [12] is Pseudomonas aeruginosa. Briefly: Induction of morphological changes in multidrug resistant Pseudomonas aeruginosa assessed as effect on cell integrity at 16 microg/ml incubated for 1 hrs by SEM analysis. The conditions noted are these: dose 16.0 µg/ml. The data set is classed as functional, organism-based.
Data set [13] has as its system Pseudomonas aeruginosa. Briefly: Induction of morphological changes in multidrug resistant Pseudomonas aeruginosa assessed as surface roughening at 16 microg/ml incubated for 1 hrs by SEM analysis. The following applies: dose 16.0 µg/ml. The data set is classed as functional, organism-based.

Calls of active or inactive are those of the source. No cut-off for these calls is given here. Non-standard residues stand in square brackets, D forms with d. Residues, ends and D or L forms follow the SMILES beside them. Dab = NCC[C@H](N)C(=O)O

We go through one compound from ChEMBL document CHEMBL6134827, “The discovery of novel antimicrobial peptides against drug-resistant bacteria based on fragments fusion strategy” (Eur J Med Chem, 2025).

One may read the MIC as the lowest concentration that inhibits growth of the organism.

For `CC(C)C[C@H](NC(=O)CN)C(=O)N[C@@H](CCCNC(=N)N)C(=O)N[C@@H](CCN)C(=O)N[C@@H](Cc1c[nH]c2ccccc12)C(=O)N[C@@H](CC(C)C)C(=O)N[C@@H](CCCNC(=N)N)C(=O)N[C@@H](CCN)C(=O)N[C@@H](Cc1ccccc1)C(=O)N[C@@H](CCN)C(=O)N[C@@H](CCN)C(=O)N[C@@H](Cc1ccccc1)C(=O)N[C@@H](Cc1c[nH]c2ccccc12)C(=O)O` (H-GLR[Dab]WLR[Dab]F[Dab][Dab]FW-OH), the MIC in the data set on Escherichia coli was found to be 4.8 µM. Also, the Ratio in the data set on Pseudomonas aeruginosa [1] and with Staphylococcus aureus was less than 2 throughout. The outcome in the data set on Pseudomonas aeruginosa [2] and with Pseudomonas aeruginosa [3] was inactive. Further, the Activity entry in [4], in data set [5], in data set [6] and in data set [7] was “Non-toxic” throughout. Besides, the result in the data set on Pseudomonas aeruginosa [8], with Pseudomonas aeruginosa [9], with Pseudomonas aeruginosa [10], with Pseudomonas aeruginosa [11], with Pseudomonas aeruginosa [12] and in the data set on Pseudomonas aeruginosa [13] was Active.
